Source: patent US20140329863A1 (priority 2011, published 2014)

Tested on: PrP^Sc in dividing ScN2a-cl3 cells
Test: not given
Assay type: cell-based, mouse
Conditions: read-out: Antiprion activity EC50; thienopyridine analogs

Row | Compound | EC50 [nM]
1 | COc1ccc2cc3c(N)c(C(=O)Nc4ccc(C(C)=O)cc4)sc3nc2c1 [IND-0052025] | 74

Same assay, conditions: read-out: EC50 (nM): ELISA; dividing ScN2a-cl3 cells

Row | Compound | EC50 [nM]
2 | CCc1ccc(-c2cn3cc(C)ccc3n2)cc1 [IND-0009419] | 709
3 | CC(=O)c1ccc(N2CCN(Cc3ccccc3)CC2)cc1 [IND-0019136] | 8680
4 | c1cncc(-c2nc(-c3c[nH]c4ccccc34)cs2)c1 [IND-0024350] | 321
5 | Cc1[nH]c2ccccc2c1-c1csc(-c2cccnc2)n1 [IND-0024352] | 2270
6 | COc1ccc(-c2cc(-c3ccc(OC)cc3O)[nH]n2)cc1 [IND-0025807] | 167
7 | Cn1c(=N)n(CC(=O)c2ccc(Cl)cc2)c2ccccc21 [IND-0026326] | 5900
8 | COc1ccc(-c2cc(-c3ccc(C)cc3O)[nH]n2)cc1 [IND-0028801] | 245
9 | COc1ccc2cc3c(N)c(C(=O)Nc4ccc(C(C)=O)cc4)sc3nc2c1 [IND-0052025] | 57

Same assay, conditions: read-out: Potency (nM) ELISA (EC50); PrP^Sc ELISA, dividing ScN2a-cl3 cells

Row | Compound | EC50 [nM]
10 | CCc1ccc(-c2cn3cc(C)ccc3n2)cc1 [IND-0009419] | 709
11 | CC(=O)c1ccc(N2CCN(Cc3ccccc3)CC2)cc1 [IND-0019136] | 8680
12 | c1cncc(-c2nc(-c3c[nH]c4ccccc34)cs2)c1 [IND-0024350] | 321
13 | Cc1[nH]c2ccccc2c1-c1csc(-c2cccnc2)n1 [IND-0024352] | 2270
14 | COc1ccc(-c2cc(-c3ccc(OC)cc3O)[nH]n2)cc1 [IND-0025807] | 167
15 | Cn1c(=N)n(CC(=O)c2ccc(Cl)cc2)c2ccccc21 [IND-0026326] | 5900
16 | COc1ccc(-c2cc(-c3ccc(C)cc3O)[nH]n2)cc1 [IND-0028801] | 245
17 | COc1ccc2cc3c(N)c(C(=O)Nc4ccc(C(C)=O)cc4)sc3nc2c1 [IND-0052025] | 57

Tested on: PrP^Sc in ScN2a-cl3 cells
Test: not given
Assay type: cell-based, mouse
Conditions: read-out: EC50 (nM): Western; Western immunoblots, ScN2a-cl3 cells

Row | Compound | EC50 [nM]
18 | CCc1ccc(-c2cn3cc(C)ccc3n2)cc1 [IND-0009419] | 265
19 | CC(=O)c1ccc(N2CCN(Cc3ccccc3)CC2)cc1 [IND-0019136] | 615
20 | c1cncc(-c2nc(-c3c[nH]c4ccccc34)cs2)c1 [IND-0024350] | 828
21 | Cc1[nH]c2ccccc2c1-c1csc(-c2cccnc2)n1 [IND-0024352] | 1700
22 | COc1ccc(-c2cc(-c3ccc(OC)cc3O)[nH]n2)cc1 [IND-0025807] | 95
23 | Cn1c(=N)n(CC(=O)c2ccc(Cl)cc2)c2ccccc21 [IND-0026326] | 4970
24 | COc1ccc(-c2cc(-c3ccc(C)cc3O)[nH]n2)cc1 [IND-0028801] | 117
25 | COc1ccc2cc3c(N)c(C(=O)Nc4ccc(C(C)=O)cc4)sc3nc2c1 [IND-0052025] | 61

Same assay, conditions: read-out: Potency (nM) Western (EC50); Western immunoblots, dividing ScN2a-cl3 cells

Row | Compound | EC50 [nM]
26 | CCc1ccc(-c2cn3cc(C)ccc3n2)cc1 [IND-0009419] | 285
27 | CC(=O)c1ccc(N2CCN(Cc3ccccc3)CC2)cc1 [IND-0019136] | 615
28 | c1cncc(-c2nc(-c3c[nH]c4ccccc34)cs2)c1 [IND-0024350] | 828
29 | Cc1[nH]c2ccccc2c1-c1csc(-c2cccnc2)n1 [IND-0024352] | 1700
30 | COc1ccc(-c2cc(-c3ccc(OC)cc3O)[nH]n2)cc1 [IND-0025807] | 95
31 | Cn1c(=N)n(CC(=O)c2ccc(Cl)cc2)c2ccccc21 [IND-0026326] | 4970
32 | COc1ccc(-c2cc(-c3ccc(C)cc3O)[nH]n2)cc1 [IND-0028801] | 117
33 | COc1ccc2cc3c(N)c(C(=O)Nc4ccc(C(C)=O)cc4)sc3nc2c1 [IND-0052025] | 61

Tested on: N2a-cl3 cells
Test: not given
Conditions: mouse

Row | Compound | EC50 (nM): Calcein (LC50 values from calcein assays)
34 | CCc1ccc(-c2cn3cc(C)ccc3n2)cc1 [IND-0009419] | MW: 236.3 EC50 (nM): ELISA: 709 Calcein: >10,000 Western: 265
35 | CC(=O)c1ccc(N2CCN(Cc3ccccc3)CC2)cc1 [IND-0019136] | MW: 294.4 EC50 (nM): ELISA: 8681 Calcein: >10,000 Western: 615
36 | c1cncc(-c2nc(-c3c[nH]c4ccccc34)cs2)c1 [IND-0024350] | MW: 277.3 EC50 (nM): ELISA: 321 Calcein: >10,000 Western: 828
37 | Cc1[nH]c2ccccc2c1-c1csc(-c2cccnc2)n1 [IND-0024352] | MW: 291.4 EC50 (nM): ELISA: 2267 Calcein: >10,000 Western: 1698
38 | COc1ccc(-c2cc(-c3ccc(OC)cc3O)[nH]n2)cc1 [IND-0025807] | MW: 296.3 EC50 (nM): ELISA: 167 Calcein: >10,000 Western: 95
39 | Cn1c(=N)n(CC(=O)c2ccc(Cl)cc2)c2ccccc21 [IND-0026326] | MW: 299.8 EC50 (nM): ELISA: 5900 Calcein: >10,000 Western: 4967
40 | COc1ccc(-c2cc(-c3ccc(C)cc3O)[nH]n2)cc1 [IND-0028801] | MW: 280.3 EC50 (nM): ELISA: 245 Calcein: >10,000 Western: 117
41 | COc1ccc2cc3c(N)c(C(=O)Nc4ccc(C(C)=O)cc4)sc3nc2c1 [IND-0052025] | MW: 391.4 EC50 (nM): ELISA: 57 Calcein: >10,000 Western: 61

Tested on: not listed separately
Test: in vitro
Conditions: mouse

Row | Compound | CC50 [nM]
42 | CCc1ccc(-c2cn3cc(C)ccc3n2)cc1 [IND-0009419] | > 10000
43 | CC(=O)c1ccc(N2CCN(Cc3ccccc3)CC2)cc1 [IND-0019136] | > 10000
44 | c1cncc(-c2nc(-c3c[nH]c4ccccc34)cs2)c1 [IND-0024350] | > 10000
45 | Cc1[nH]c2ccccc2c1-c1csc(-c2cccnc2)n1 [IND-0024352] | > 10000
46 | COc1ccc(-c2cc(-c3ccc(OC)cc3O)[nH]n2)cc1 [IND-0025807] | > 10000
47 | Cn1c(=N)n(CC(=O)c2ccc(Cl)cc2)c2ccccc21 [IND-0026326] | > 10000
48 | COc1ccc(-c2cc(-c3ccc(C)cc3O)[nH]n2)cc1 [IND-0028801] | > 10000
49 | COc1ccc2cc3c(N)c(C(=O)Nc4ccc(C(C)=O)cc4)sc3nc2c1 [IND-0052025] | > 10000
